Source: patent US12304899B2, “Factor XI activation inhibitors” (Merck Sharp & Dohme LLC, priority 2019, dated 2025)
pEC50: −log10 of the molar value.

Target: T1, Human coagulation factor (F)XI (Homo sapiens, UniProt P03951)
T1 construct: purchased Haematologic Technologies Inc. (FXI); Enzyme Research Laboratories (FXIIa) HCXI-150 (FXI); HFXIIa (FXIIa)
Experiment: Inhibition of FXIIa mediated activation of FXI (activation of human Factor XI to XIa by human Factor α-XIIa)
Format: biochemical
Settings: human FXI pre-incubated with compound 30 min at 22° C., activation by human FXIIa 60 min, z-GPR-AFC substrate fluorescence, 4 parameter logistic fit; read-out: Inhibition of FXIIa meditated activation of FXI
Method in brief: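 Human FXI (46 nM stock) preincubated 30 min at 22 °C with compound (10-point, 3.333-fold dilutions), then activated by human α-FXIIa (30 nM stock) for 60 min in HEPES/NaCl/CaCl2/PEG buffer, pH 7.4. After quench with a selective FXIIa inhibitor, FXIa generation read by z-GPR-AFC cleavage (60 min, fluorescence 405/510 nm); EC50 from 4-parameter logistic fit.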

T1 sequence (P03951 19-625): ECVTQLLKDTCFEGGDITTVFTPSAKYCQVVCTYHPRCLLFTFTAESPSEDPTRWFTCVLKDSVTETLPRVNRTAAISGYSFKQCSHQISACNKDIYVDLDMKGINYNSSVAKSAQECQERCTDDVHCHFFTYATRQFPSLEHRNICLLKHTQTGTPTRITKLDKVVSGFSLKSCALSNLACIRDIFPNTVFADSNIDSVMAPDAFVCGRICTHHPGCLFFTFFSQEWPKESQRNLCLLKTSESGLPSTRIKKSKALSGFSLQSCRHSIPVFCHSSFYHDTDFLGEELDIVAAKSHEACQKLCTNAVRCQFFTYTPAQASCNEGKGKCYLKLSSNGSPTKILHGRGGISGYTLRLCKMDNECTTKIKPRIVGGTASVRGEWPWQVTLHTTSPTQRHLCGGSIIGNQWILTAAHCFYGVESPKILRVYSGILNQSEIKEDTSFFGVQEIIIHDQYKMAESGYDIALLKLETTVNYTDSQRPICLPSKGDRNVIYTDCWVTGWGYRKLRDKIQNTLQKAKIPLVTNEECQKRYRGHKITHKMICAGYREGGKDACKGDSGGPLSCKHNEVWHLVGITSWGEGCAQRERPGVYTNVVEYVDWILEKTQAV

Row | pEC50 | Compound
1 | 7.73 | O=C(c1cc(C(=O)N2CCCCC2)c2cc(OCc3nc4ccccc4s3)c(F)cc2n1)N1CCC(n2cccn2)CC1 [Example 75, (4-(1H-pyrazol-1-yl)piperidin-1-yl)(6-(benzo[d]thiazol-2-ylmethoxy)-7-fluoro-4-(piperidine-1-carbonyl)quinolin-2-yl)methanone]
2 | 7.99 | N#CC1(n2cccn2)CCN(C(=O)c2cc(C(=O)N3CCCCC3)c3cc(OCc4ccc5snnc5c4)ccc3n2)CC1 [Example 76, 1-(6-(benzo[d][1,2,3]thiadiazol-5-ylmethoxy)-4-(piperidine-1-carbonyl)quinoline-2-carbonyl)-4-(1H-pyrazol-1-yl)piperidine-4-carbonitrile]
